Legend:
MPTP-induced monkey = assay: Parkinson's disease score in MPTP-induced monkey; format: in vivo, Macaque monkeys; settings: 1 mg/kg oral for 4 weeks after MPTP; compared with group given 1 mg/kg rasagiline; FIG. 1
Method: Macaque monkeys (n=35, 3 to 4-year-old) were used as an experimental model. The macaque monkeys were divided into three groups, and 0.2 mg/kg of MPTP was administered to each group (once a day, every day, until Parkinson's disease score reaches 8 or for 14 days) via intravenous injection. […] In addition, to confirm the effect of […] as a dopamine agonist, dopamine transporters existing in medial striatum and caudal striatum taken from the MPTP-induced monkey model were subjected to a dopamine transporter binding assay.
The extent of Parkinson's disease was measured by analyzing videotaped behaviors of each group of monkeys, based on four standards: a) range of movement, b) hypokinesia, c) extent of abnormal posture, and d) tremor. A Parkinson's disease score was evaluated by the sum of (4-range of movement)+hypokinesia+extent of abnormal posture+tremor. […] The Parkinson's disease score was measured for 10 minutes every 30 minutes through 2 hours. That is, the maximum value of the highest Parkinson's disease score is 40. Meanwhile, the measurement method performed based on the four standards was as follows, and evaluated scores below represent representative behaviors observed through observation periods: […]

MPTP-induced mouse = assay: Tail suspension test in MPTP-induced mouse; format: in vivo, C57BL/6 mice; settings: FIG. 3
Method: The tail suspension test was performed to measure the extent of causation of behavioral loss according to the administration of MPTP and medicines. The TST was performed in such a manner that 7 days after the compounds described above are respectively administered to the three groups, a circular stainless steel stick with a width of 1 cm was fixed to a cage with a width of 16 cm and a height of 40 cm located at a height of 35 cm and whose left and right sides were covered by black wood. The movement time of the mice was measured for 6 minutes in a second unit, and thus the efficacies of the compounds were evaluated.

malonate-induced mouse = assay: Striatum damage in malonate-induced mouse (TTC staining); format: in vivo, ICR mice; settings: 5 mg/kg i.p., five times; TTC staining 3 days after malonate; FIGS. 7 and 8
Method: 5 ml/kg of equithesin was administered to each mouse via intraperitoneal injection to be anesthetized, two levelers of a stereotactic instrument were set at 0 mm from both external auditory canals, and the skull of the mouse was perforated in the stereotactic instrument. 0.2 mg/ml of ascorbic acid was used as a control, and 2.4 umole/2 of malonate was injected into a lesion group and a compound treatment group 0.5 mm forward (AP) and 1.2 mm sideward from striatum on the right side (bregma) and 3.1 mm downward from dura matter by using a Hamilton syringe (10 μl, 26G needle) at a rate of 1 uL/min. The groups administered with malonate were divided into two groups, and 0.5 ml/kg of excipient (n=12) and 5 mg/kg of CBI (n=14) were respectively administered to the two groups via intraperitoneal injection 2 hours before an operation and administered again 1 hour, 1 day, 2 days and 3 days after the operation, i.e., total five times. Malonate was injected into striatum of the mouse, the mouse was sacrificed after 3 days, and the brain was taken out of the mouse to prepare a section. Thereafter, the section was stained with 2,3,5-triphenyltetrazolium chloride (TTC).

NGF = assay: Amount of NGF mRNA in striatum of mouse without neurotoxin; format: in vivo, C57BL/6 mice; settings: 1 mg/kg oral once a day for 8 days each; FIG. 15
Method: Next day after the last day of administration, striatum and substantia nigra tissues were taken out of each group of mice. mRNA was extracted from the cell of the taken tissue, and thus the amount of mRNA of NGF was measured by real-time RT-PCR.

[1] = test system: MAO-B-deficient human neuroblastoma SH-SY5Y cells; assay: Transmembrane potential of mitochondria (MitoPT kit) in MPP+-treated cells; format: cell-based; settings: 2 mM MPP+, 24 hours, FIG. 16
Method: In this embodiment, MAO-B-deficient human neuroblastoma SH-SY5Y cells (Korean Cell Line Bank) were used. The cells were incubated in a DMEM medium in 5% of CO2 at 37° C. for 24 hours. The cultured cells were divided into five groups, 2 mM of 1-methyl-4-phenyl-pyridium (MPP^+) was added to each group, three of the five groups were respectively treated with 1 nM, 10 nM and 50 nM of CBI, one of the other two groups was treated with 10 nM of rasagiline, and the CBI- or rasagiline-treated four groups were further incubated in 5% of CO2 at 37° C. for 24 hours. The group with only MPP^+ added thereto was incubated under the same conditions as describe dabove. Subsequently, according to manufacturer's protocols, the transmembrane potential of mitochondria was determined using MitoPT™ kit (Immunochemistry Technology). The transmembrane potential of mitochondria was confirmed using a fluorescent plate reader (Tecan, Austria). […] Thus, RFU values (red fluorescence value/green fluorescence value) were determined from the results, and the results are shown in FIG. 16.

cytochrome c = assay: Release of cytochrome c into cytoplasm (western blot) in MPP+-treated cells; format: cell-based, human; settings: MPP+-added neurons; FIG. 17
Description: In addition, apoptosis is known to be caused by mechanisms of release of cytochrome c from mitochondria and activation of caspase 3 (The New England journal of Medicine, 348:1365-1375 (2003)). To confirm whether or not the stability of the transmembrane potential of mitochondria by the treatment of CBI is associated with anti-apoptosis of neurons, cell extracts were obtained from the groups of cells, and thus the amount of cytochrome c and the activity of caspase 3 in the cell cytoplasm were measured.
SH-SY5Y cells were incubated under the same conditions as described in Example 7, and then washed with PBS. A protease inhibitor cocktail (Roche) and a phosphatase inhibitor cocktail (Roche) were added to a […] buffer (20 mM HEPES, 10 mM KCl, 2 mM MgCl2, 1 mM EDTA), and the SH-SY5Y cells were treated with 100 ul of the resulting solution and then suspended uniformly. The resultant was maintained on ice for 30 minutes, and then centrifuged at 12,000 rpm for 20 minutes. Subsequently, the same amount of the supernatant was loaded onto a SDS-PAGE gel followed by electrophoresis, the gel was transferred onto a nitrocellulose membrane, the membrane was blotted using cytochrome c (Santacruz, sc13156) diluted to 1:2000 by using a well-known method in the art, and the expression of cytochrome c was evaluated using ECL kit (Amersham Pharmacia).

catalase = assay: Activity of catalase in striatum and substantia nigra of mouse; format: in vivo, C57BL/6 mice; settings: 1 mg/kg oral for 8 days, no neurotoxin, FIG. 22
Method: Next day after the last day of administration, striatum and substantia nigra tissues were taken out of each group of mice. Cell extracts were obtained from the cells of the tissues, and thus the activities of the catalase, SOD and GPx were measured.

## NC(=O)OCc1cc(-c2ccc(OCc3ccccc3)cc2)no1 [CBI, carbamic acid 3-(4-benzyloxy-phenyl)-isoxazole-5-yl methylester]
MPTP-induced monkey
  extent of Parkinson's disease (Parkinson's disease score): significantly decreased extent of Parkinson's disease
MPTP-induced mouse; 1 mg/kg oral each
  behavioral restoration in tail suspension test compared with rasagiline group: excellent capability of behavioral restoration
MPTP-induced mouse; 1 mg/kg oral once a day after MPTP 30 mg/kg i.p. x 4 days
  behaviors in tail suspension test: the same extent of behaviors as those of normal mice
malonate-induced mouse
  damaged regions of the striatum induced by malonate: significantly reducing damaged regions of the striatum
NGF
  expression of NGF in the striatum compared with rasagiline group: significantly higher
[1]; 1 nM, 10 nM and 50 nM
  transmembrane potential of mitochondria: stabilized concentration-dependently
[1]; rasagiline 10 nM
  stability effect of the transmembrane potential of mitochondria relative to same concentration of rasagiline: no less than 2 times
Cytochrome c
  amount of cytochrome c in the cytoplasm: decreased
  amount of cytochrome c released from mitochondria compared with same amount of rasagiline: smaller
catalase
  increase of the activity of the catalase in the striatum: about 13%

— US9290464B2 (priority 2010, dated 2016)
